Data: patent publication US20220348549A1 (Hoffmann-La Roche Inc., priority 2019, published 2022)

These compounds were tested on HBV cccDNA (HBeAg level in HepDES19 cells) (assay: Engineered HepDES19 primary screen assay (HBeAg ELISA as surrogate marker for cccDNA)). Details: Hepatitis B virus, HepDES19, 120 h.
Format: cell-based
Description: The assay was employed to screen for novel HBV cccDNA inhibitors. HepDES19 is a HBV cccDNA-producing cell line. In this cell line, HBeAg in the cell culture supernatant as surrogate marker, as HBeAg production depends on cccDNA level and activity. HepDES19 is an engineered cell line which contains a 1.1 unit length HBV genome, and pgRNA transcription from the transgene is controlled by Tetracycline (Tet). In the absence of Tet, pgRNA transcription will be induced, but HBV e antigen (HBeAg) could not be produced from this pgRNA due to very short leader sequence before the HBeAg start codon and the start codon is disrupted. Only after cccDNA is formed, the missing leader sequence and start codon mutation would be restored from the 3′-terminal redundancy of pgRNA, and then HBeAg could be synthesized. Therefore, HBeAg could be used as a surrogate marker for cccDNA (Zhou, T. et al., Antiviral Res. (2006), 72(2), 116-124; Guo, H. et al., J. Virol. (2007), 81(22), 12472-12484).
HepDES19 cells were seeded at 2×10^6 cells per T150 flask and cultured with the culture medium (Dulbecco's Modified Eagle Medium: Nutrient Mixture F-12 [DMEM-F12, Gibco Cat. 11320-82], 10% Fetal Bovine Serum [FBS, Clontech Cat. 631101], 0.1 mM Non-Essential Amino Acids Solution [NEAA, Gibco Cat. 11140-050], 50 μg/mL Penicillin-Streptomycin [PS, Invitrogen Cat. 15140-163], 500 μg/mL Geneticin [G418, Invitrogen Cat. 10131-027]) containing 3 μg/mL Tet (Sigma, Cat. 87128) for 5 days. Cells were then seeded at 4×10^6 cells per T150 in the same culture medium as described above in the absence of Tet for 8 days. Cells were then harvested and frozen at density of 2×10^6 cells per mL. For compound testing, the frozen cells were thawed and seeded into 96-well plates at a density of 6×10^4 cells per well. At 24 hrs after seeding, half log serial dilutions of compounds made with Dimethyl sulfoxide (DMSO, Sigma, Cat. D2650) were further diluted with the same culture medium as described above before they were added to the cells to reach desired final compound concentrations and 1% DMSO concentration. Plates were then incubated at 37° C. for another 5 days before measurement of HBeAg level and cell viability. Intracellular HBeAg level were measured with enzyme-linked immunosorbent assay (ELISA) kit (Shanghai Kehua Diagnostic Medical Products Co., Ltd). Cell viability was assessed using Cell Counting Kit-8 (Donjindo, Cat. CK04-20). IC50 values were derived from the dose-response curve using 4 parameter logistic curve fit method.
The compounds of the present invention were tested for their capacity to inhibit extracellular HBeAg level as described herein.

| SMILES | IC50 [nM] |
| --- | --- |
| Clc1cccc2cnc(-c3ccc(Br)cc3)nc12 [Example 1, 2-(4-Bromophenyl)-8-chloroquinazoline] | 100 |
| Clc1cccc2cnc(-c3cccc(Br)c3)nc12 [Example 2, 2-(3-Bromophenyl)-8-chloroquinazoline] | 360 |
| Cc1nc(-c2cccc(C(F)(F)F)c2)nc2cc(Br)ccc12 [Example 3, 7-Bromo-4-methyl-2-[3-(trifluoromethyl)phenyl]quinazoline] | 750 |
| Cc1nc(-c2cccc(Br)c2)nc2cc(C(F)(F)F)c(Cl)cc12 [Example 4, 2-(3-Bromophenyl)-6-chloro-4-methyl-7-(trifluoromethyl)quinazoline] | 3620 |
| Oc1ccc(-c2ncc3cccc(Cl)c3n2)cc1 [Example 5, 4-(8-Chloroquinazolin-2-yl)phenol] | 4350 |
| COC(=O)c1cccc(COc2ccc(-c3ncc4cccc(Cl)c4n3)cc2)c1 [Example 6, Methyl 3-((4-(8-chloroquinazolin-2-yl)phenoxy)methyl)benzoate] | 6160 |
| O=C(O)c1cccc(COc2ccc(-c3ncc4cccc(Cl)c4n3)cc2)c1 [Example 7, 3-((4-(8-Chloroquinazolin-2-yl)phenoxy)methyl)benzoic acid] | 220 |
| Cc1nc(-c2ccc(OCc3cccc(C(=O)O)c3)cc2)nc2c(Cl)cccc12 [Example 8, 3-((4-(8-Chloro-4-methylquinazolin-2-yl)phenoxy)methyl)benzoic acid] | 460 |
| Cc1nc(-c2ccc(OCCO)cc2)nc2c(Cl)cccc12 [Example 9, 2-[4-(8-Chloro-4-methyl-quinazolin-2-yl)phenoxy]ethanol] | 1930 |
| COC(=O)COCCOc1ccc(-c2nc(C)c3cccc(Cl)c3n2)cc1 [Example 10, Methyl 2-[2-[4-(8-chloro-4-methyl-quinazolin-2-yl)phenoxy]ethoxy]acetate] | 1040 |
| Cc1nc(-c2ccc(OCCOCC(=O)O)cc2)nc2c(Cl)cccc12 [Example 11, 2-[2-[4-(8-Chloro-4-methyl-quinazolin-2-yl)phenoxy]ethoxy]acetic acid] | 4490 |
| Cc1nc(-c2ccc(OCCO[C@H]3C[C@@H](C(=O)O)C3)cc2)nc2c(Cl)cccc12 [Example 12, cis-3-[2-[4-(8-Chloro-4-methyl-quinazolin-2-yl)phenoxy]ethoxy]cyclobutanecarboxylic acid] | 63 |
| Cc1nc(-c2ccc(Cl)cc2)nc2c(Cl)cccc12 [Example 13, 8-Chloro-2-(4-chlorophenyl)-4-methylquinazoline] | 1030 |
| Cc1nc(-c2ccc(OCCOCC(=O)O)cc2)nc2cc(C(F)(F)F)ccc12 [Example 14, 2-(2-(4-(4-Methyl-7-(trifluoromethyl)quinazolin-2-yl)phenoxy)ethoxy)acetic acid] | 29900 |
| Cc1nc(-c2ccc(OCCOC3CC(C(=O)O)C3)cc2)nc2cc(C(F)(F)F)ccc12 (centres unmarked) [Example 15, 3-(2-(4-(4-Methyl-7-(trifluoromethyl)quinazolin-2-yl)phenoxy)ethoxy) cyclobutanecarboxylic acid] | 60 |
| COCc1nc(-c2cccc(Br)c2)nc2cc(C(F)(F)F)ccc12 [Example 16, 2-(3-Bromophenyl)-4-(methoxymethyl)-7-(trifluoromethyl)quinazoline] | 2390 |
| CN(C)Cc1nc(-c2cccc(Br)c2)nc2cc(C(F)(F)F)ccc12 [Example 17, 1-(2-(3-Bromophenyl)-7-(trifluoromethyl)quinazolin-4-yl)-N,N-dimethylmethanamine] | 4660 |
| FC(F)(F)c1ccc2c(CN3CCOCC3)nc(-c3cccc(Br)c3)nc2c1 [Example 18, 4-((2-(3-Bromophenyl)-7-(trifluoromethyl)quinazolin-4-yl)methyl)morpholine] | 1930 |
| OCc1nc(-c2cccc(Br)c2)nc2cc(C(F)(F)F)ccc12 [Example 20, (2-(3-Bromophenyl)-7-(trifluoromethyl)quinazolin-4-yl)methanol] | 3660 |
| OCc1nc(-c2ccc(Cl)cc2)nc2c(Cl)cccc12 [Example 21, (8-Chloro-2-(4-chlorophenyl)quinazolin-4-yl)methanol] | 94 |
| Cc1nc(-c2cccc(CO)c2)nc2cc(C(F)(F)F)ccc12 [Example 22, (3-(4-Methyl-7-(trifluoromethyl)quinazolin-2-yl)phenyl)methanol] | 7130 |

| SMILES | IC50 [nM] |
| --- | --- |
| Cc1nc(-c2ccc(Cl)nc2)nc2c(Cl)cccc12 [Example 23, 8-Chloro-2-(6-chloropyridin-3-yl)-4-methylquinazoline] | 220 |
| Clc1ccc(-c2ncc3cccc(Cl)c3n2)cn1 [Example 24, 8-Chloro-2-(6-chloropyridin-3-yl)quinazoline] | 94 |
| Oc1ccc(-c2ncc3cccc(Cl)c3n2)cn1 [Example 25, 5-(8-Chloroquinazolin-2-yl)pyridin-2-ol] | 4680 |
| CN(C)c1ccc(-c2ncc3cccc(Cl)c3n2)cn1 [Example 26, 5-(8-Chloroquinazolin-2-yl)-N,N-dimethylpyridin-2-amine] | 91 |
| Clc1cccc2cnc(-c3ccc(N4CCOCC4)nc3)nc12 [Example 27, 4-(5-(8-Chloroquinazolin-2-yl)pyridin-2-yl)morpholine] | 590 |
| OCCN(CCO)c1ccc(-c2ncc3cccc(Cl)c3n2)cn1 [Example 28, 2,2′-((5-(8-Chloroquinazolin-2-yl)pyridin-2-yl)azanediyl)diethanol] | 300 |
| COC(=O)C1CCN(c2ccc(-c3ncc4cccc(Cl)c4n3)cn2)CC1 [Example 29, Methyl 1-(5-(8-chloroquinazolin-2-yl)pyridin-2-yl)piperidine-4-carboxylate] | 1230 |
| O=C(O)C1CCN(c2ccc(-c3ncc4cccc(Cl)c4n3)cn2)CC1 [Example 30, 1-(5-(8-chloroquinazolin-2-yl)pyridin-2-yl)piperidine-4-carboxylic acid] | 7630 |
| O=C(O)c1nc(-c2cccc(Br)c2)nc2cc(C(F)(F)F)ccc12 [Example 31, 2-(3-Bromo-phenyl)-7-trifluoromethyl-quinazoline-4-carboxylic acid] | 17800 |
| COC(=O)c1nc(-c2cccc(Br)c2)nc2cc(C(F)(F)F)ccc12 [Example 32, Methyl 2-(3-bromophenyl)-7-(trifluoromethyl)quinazoline-4-carboxylate] | 6190 |
| COc1ccc(-c2nc(C(=O)O)c3cccc(Cl)c3n2)cc1 [Example 33, 8-Chloro-2-(4-methoxyphenyl)quinazoline-4-carboxylic acid] | 7750 |
| COc1ccc(-c2nc(C(N)=O)c3cccc(Cl)c3n2)cc1 [Example 34, 8-chloro-2-(4-methoxyphenyl)quinazoline-4-carboxamide] | 2220 |
| COc1ccc(-c2nc(C(=O)NCCO)c3cccc(Cl)c3n2)cc1 [Example 35, 8-Chloro-N-(2-hydroxyethyl)-2-(4-methoxyphenyl)quinazoline-4-carboxamide] | 16100 |
| COc1ccc(-c2ncc3cccc(Cl)c3n2)cc1 [Example 36, 8-Chloro-2-(4-methoxyphenyl)quinazoline] | 180 |
| O=C(O)c1nc(-c2ccc(Br)cc2)nc2c(Cl)cccc12 [Example 37, 2-(4-Bromophenyl)-8-chloroquinazoline-4-carboxylic acid] | 2240 |
| CCOC(=O)c1nc(-c2ccc(Br)cc2)nc2c(Cl)cccc12 [Example 38, ethyl 2-(4-bromophenyl)-8-chloro-quinazoline-4-carboxylate] | 1160 |
| O=C(NCCCl)c1nc(-c2ccc(Br)cc2)nc2c(Cl)cccc12 [Example 39, 2-(4-Bromophenyl)-8-chloro-N-(2-chloroethyl)quinazoline-4-carboxamide] | 1170 |
| Cc1nc(-c2ccc(Br)cc2)nc2c(Cl)cccc12 [Example 40, 2-(4-Bromophenyl)-8-chloro-4-methyl-quinazoline] | 82 |
| O=C(O)[C@H]1C[C@@H](OCCOc2ccc(-c3ncc4cccc(Cl)c4n3)cc2)C1 [Example 42, cis-3-[2-[4-(8-Chloroquinazolin-2-yl)phenoxy]ethoxy]cyclobutanecarboxylic acid] | 16900 |
| O=C(O)c1nc(-c2ccc(Br)cc2)nc2cc(C(F)(F)F)ccc12 [Example 43, 2-(4-Bromophenyl)-7-(trifluoromethyl)quinazoline-4-carboxylic acid] | 12900 |
